Experimental data reported in patent publication US9988644B2, “Compounds for improved viral transduction” (bluebird bio, Inc., priority 2011, dated 2018).

How the values were obtained:
CD34+ cells [1] = assay: Vector Copy Number analysis (qRT-PCR, viral LTR vs human beta-actin) after GFP+ lentivirus transduction; type: cell-based
Method: (§1) Pre-stimulated cells (Example 1) were counted after 18-24 hours of culture. The cells were collected and spun for 5 minutes at 1500 RPM. 1.2×10^6 pre-stimulated CD34^+ cells were resuspended in 60 uL 10× cytokines (1000 ng/mL SCF, 1000 ng/mL TPO, 1000 ng/mL FltL, and 300 ng/mL IL-3), 7.8 uL protamine sulfate, 111 uL viral supernatant, and 361.2 uL SCGM. 90 uL cell/virus suspension (about 200,000 cells) was added to each well of a standard non-adherent 96-well plate. dmPGE2 was added during this viral transduction step at a final concentration of 100 uM, 50 uM, 25 uM, 12.5 uM, 1 uM, or 0 uM.
(§2) Washed cells were resuspended in 200 uL SCGM+1× cytokines (as described in Example 1) and transferred to a standard 12-well non-adherent tissue culture plate containing an additional 800 uL SCGM+1× cytokines Cells were maintained for an additional 6 days in a standard humidified tissue culture incubator (5% CO2) and then subjected Vector Copy Number analysis (Example 5) and FACS analysis. For FACS analysis, cells were assayed for the presence of a virally-encoded transgene, green fluorescent protein (GFP). The frequency of the virally-labeled cells within the pool of cultured cells was quantified as the frequency of GFP+ cells within the population. The mean fluorescence intensity of labeled cells was quantified.
Briefly, total genomic DNA was isolated from cells through standard protocols (for example, through DNEasy columns from Qiagen). Genomic DNA was subjected to quantitative real-time polymerase chain reaction (qRT-PCR) with TaqMan probes for viral LTR and human beta-actin. The Ct values for viral signal and beta-actin signal were normalized to a standardized control, and the number of viral copies per copy of beta actin were calculated. A linear relationship between the vector copy number and the mean fluorescence intensity (Example 4) was observed when a viral construct that encodes GFP was used.
(§3) Tables 3A-C indicate the dose-response of dmPGE2 in promoting viral transduction of CD34+ cells for three separate experiments. CD34+ cells were thawed and pre-stimulated with SCF, TPO, FltL, and IL3, then transduced (A) with GFP+ lentivirus at a multiplicity of infection of 25, (B) with GFP+ lentivirus at a multiplicity of infection of 5, or (C) transduced with an ALD (ABCD1)-expressing lentivirus at a multiplicity of infection of 25. Cells were exposed to dmPGE2 during the viral transduction step (24-48 hours of culture). Cells were then washed and analyzed by flow cytometry and PCR after approximately 1 week in culture. The percentage of cells positive for GFP (A, B) or ALD (C) via FACS staining is indicated, along with the mean fluorescent intensity (MFI) and vector copy number (VCN) (A, B).

CD34+ cells [2] = assay: 7-Day liquid culture, FACS for GFP after transduction with GFP+ lentivirus in presence of dmPGE2; type: cell-based, human; details: for % Positive (GFP): ~1 week in culture
Method: (§4) One vial of CD34+ cells (AllCells) were thawed by incubating at 37° C. for 1-2 minutes and contents were transferred to 10 mL Stem Cell Growth Media (hereafter referred to as SCGM) in a 15-mL conical tube. Cells were spun for 5 minutes at 1500 RPM in a standard tabletop centrifuge, resuspended in 10 mL SCGM and counted on a hemacytometer. A volume correlating with an appropriate number of cells was transferred to a fresh 15-mL conical tube, and again spun for 5 minutes at 1500 RPM. Cells were resuspended to the desired cell concentration in SCGM+1× cytokines (100 ng/mL SCF, 100 ng/mL TPO, 100 ng/mL FltL, and 30 ng/mL IL-3), and plated on a sterile non-adherent surface at 37° C. in a standard humidified tissue culture incubator (5% CO2).
as §1
(§5) Aliquots of 10 mM dmPGE2 in DMSO were prepared from 1 mg previously processed dmPGE2 (Cayman Chemicals). Briefly, air was pipetted into the vial of dmPGE2 until methyl acetate was evaporated. 263 uL DMSO was added to the PGE2 remaining in the vial, and aliquots of 25 uL were added to 1.5 mL Eppendorf tubes and stored at −80° C. 10× working stock solutions were prepared by serial dilution of dmPGE2 in SCGM, and were then added to cells at appropriate working concentrations, according to Table 2. Cells were then incubated at 37° C. in a standard humidified tissue culture incubator (5% CO2).
(§6) After 24 hours of culture with virus and dmPGE2, cells were washed prior to subsequent functional validation assays. Washing was performed by transferring cells to a 96-well U-bottom plate and spinning for 5 minutes at 1500 RPM in a standard tabletop centrifuge. Media was aspirated and cells were resuspended in 200 uL SCGM. Cells were spun again for 5 minutes at 1500 RPM and media was aspirated. Cells were again resuspended in 200 uL SCGM then spun for 5 minutes at 1500 RPM, and again the media was aspirated. Particular functional validation assays are described below.
as §2
as §3, with “The percentage of cells positive for GFP (A, B) or ALD (C) via FACS staining is indicated, along with the mean fluorescent intensity (MFI) and vector copy number (VCN) (A, B).” left out

CD34+ cells [3] = assay: FACS staining for ALD after transduction with ALD (ABCD1)-expressing lentivirus in presence of dmPGE2; type: cell-based, human; details: ABCD1 MOI 25
Method: as §4, §1, §5, §6, §2
Tables 3A-C indicate the dose-response of dmPGE2 in promoting viral transduction of CD34+ cells for three separate experiments. […] Cells were then washed and analyzed by flow cytometry and PCR after approximately 1 week in culture. […]

[4] = dmPGE2 12.5 uM during transduction, GFP MOI 5
[5] = dmPGE2 12.5 uM during transduction, GFP MOI 25
[6] = dmPGE2 25 uM during transduction, GFP MOI 5
[7] = dmPGE2 50 uM during transduction, GFP MOI 5
[8] = dmPGE2 50 uM during transduction, GFP MOI 25
[9] = dmPGE2 100 uM during transduction, GFP MOI 5
[10] = dmPGE2 100 uM during transduction, GFP MOI 25

In the case of `CCCCC(C)(C)[C@H](O)/C=C/[C@H]1[C@H](O)CC(=O)[C@@H]1C/C=C\CCCC(=O)O` [dmPGE2, 16,16-dimethyl PGE2], the “VCN (vector copy number)” value (CD34+ cells [1]; [4]) is reported as 0.18, the “VCN (vector copy number)” value (CD34+ cells [1]; [5]) is reported as 1.5 and the “VCN (vector copy number)” value (CD34+ cells [1]; [6]) is reported as 0.21. The “VCN (vector copy number)” value (CD34+ cells [1]; dmPGE2 25 uM during transduction, GFP MOI 25) was 1.7, the “VCN (vector copy number)” value (CD34+ cells [1]; [7]) was 0.715 and the “VCN (vector copy number)” value (CD34+ cells [1]; [8]) was 2.2. For the same compound, the “VCN (vector copy number)” value (CD34+ cells [1]; [9]) was 0.83, the “VCN (vector copy number)” value (CD34+ cells [1]; [10]) was 3.55 and the “% Positive (GFP)” value (CD34+ cells [2]; dmPGE2 12.5 uM during transduction (24-48 hours of culture), GFP MOI 5) was 17.84%. The “% Positive (GFP)” value (CD34+ cells [2]; dmPGE2 12.5 uM during transduction (24-48 hours of culture), GFP MOI 25) was 54.71%, the “MFI (mean fluorescent intensity)” value (CD34+ cells [2]; [4]) was 530,218.50 and the “MFI (mean fluorescent intensity)” value (CD34+ cells [2]; [5]) was 759,442.75. For the same compound, the “% Positive (GFP)” value (CD34+ cells [2]; dmPGE2 25 uM during transduction (24-48 hours of culture), GFP MOI 5) was 18.69%, the “% Positive (GFP)” value (CD34+ cells [2]; dmPGE2 25 uM during transduction (24-48 hours of culture), GFP MOI 25) was 59.99% and the “MFI (mean fluorescent intensity)” value (CD34+ cells [2]; [6]) was 562,428.00. The “% Positive (GFP)” value (CD34+ cells [2]; dmPGE2 50 uM during transduction (24-48 hours of culture), GFP MOI 5) was 36.80%, the “% Positive (GFP)” value (CD34+ cells [2]; dmPGE2 50 uM during transduction (24-48 hours of culture), GFP MOI 25) was 67.62% and the “MFI (mean fluorescent intensity)” value (CD34+ cells [2]; [7]) was 656,703.50. For the same compound, the “MFI (mean fluorescent intensity)” value (CD34+ cells [2]; [8]) was 977,806.75, the “% Positive (GFP)” value (CD34+ cells [2]; dmPGE2 100 uM during transduction (24-48 hours of culture), GFP MOI 5) was 42.97% and the “% Positive (GFP)” value (CD34+ cells [2]; dmPGE2 100 uM during transduction (24-48 hours of culture), GFP MOI 25) was 81.53%. The “MFI (mean fluorescent intensity)” value (CD34+ cells [2]; [9]) was 732,716.25, the “MFI (mean fluorescent intensity)” value (CD34+ cells [2]; [10]) was 1,513,504.00 and the “% Positive (ALD via FACS staining)” value (CD34+ cells [3]; dmPGE2 1 uM during transduction (24-48 hours of culture)) was 34.13%. The “% Positive (ALD via FACS staining)” value (CD34+ cells [3]; dmPGE2 12.5 uM during transduction (24-48 hours of culture)) was 45.36%, the “% Positive (ALD via FACS staining)” value (CD34+ cells [3]; dmPGE2 25 uM during transduction (24-48 hours of culture)) was 43.76% and the “% Positive (ALD via FACS staining)” value (CD34+ cells [3]; dmPGE2 50 uM during transduction (24-48 hours of culture)) was 56.10%. The “% Positive (ALD via FACS staining)” value (CD34+ cells [3]; dmPGE2 100 uM during transduction (24-48 hours of culture)) was 72.26%.
